Laboratory results: patent publication US7276576B1, “Mammalian ICYP (iodocyanopindolol) receptor and its applications” (Dainippon Sumitomo Pharma Co., Ltd., priority 1996, dated 2007)
“And” between values parts separate entries of the source, which are not always exact repeats. Identical values can stand only once. Counter-ions that a name gives are not always drawn. Like-named read-outs stand apart in the source and are kept apart here. Blank lines part the entries; values can stand above or below the molecule they belong to.

Experiments:
rat white adipocytes = test: Lipolysis in rat white adipocytes; format: cell-based; conditions: for Slope of Schild plot for cyanopindolol, rat white adipocytes / pA2 for cyanopindolol, rat white adipocytes / IA, rat white adipocyte lipolysis / EC50: 10 μM phentolamine and 1 μM propranolol; for IA, rat white adipocyte lipolysis: relative to isoproterenol; for IA, rat white adipocyte lipolysis / EC50: mean ± SEM; for EC50: Rattus norvegicus, Adipocyte, read-out: pD2, rat white adipocyte lipolysis (converted)
Experimental: White adipocytes were isolated from epididymal fat pads of male Wistar rats (190-230 g) and lipolysis was determined according to the previous report (Sugasawa T. et al. cited above). The cells were preincubated for 5 min at 37° C. in the presence of 30 μM ascorbic acid, 10 μM phentolamine and 1 μM propranolol.
Agonists were then applied and incubated for 90 min. In the case of testing the effect of cyanopindolol, it was added 5 min before the addition of agonist.
(§1) Agonist concentration-ratios (CR) were determined from the EC50 values of the concentration-response curves of agonists with or without cyanopindolol, according to the method of Arunlakshana et al., 1959.
(§2) The EC50 values were calculated using the computer program, InPlot™.

[1] = system: rat colon smooth muscle segment; test: Relaxation of KCl-induced tonus in rat colon segment (organ bath); conditions: for Slope of Schild plot for cyanopindolol, rat colon / pA2 for cyanopindolol, rat colon / IA, rat colon relaxation / EC50: 10 μM phentolamine and 1 μM propranolol; for IA, rat colon relaxation: relative to isoproterenol; for IA, rat colon relaxation / EC50: mean ± SEM; for EC50: Rattus norvegicus, relaxation of KCl (100 mM)-induced tonus, read-out: pD2, rat colon relaxation (converted)
Experimental: Rat colon segment (2 cm) was suspended in organ bath containing 10 ml modified-Tyrode solution (Sugasawa T. et al. Eur. J. Pharmacol., 1992, 216, 207-215). The Tyrode solution contained 0.5 μM atropine, 0.5 μM desmethylimipramine, 30 μM hydrocortisone, 30 μM ascorbic acid, 10 μM phentolamine and 1 μM propranolol throughout study, in order to inhibit spontaneous contraction, neuronal and extra-neuronal uptake of norepinephrine, oxidation of catecholamines, possible α, β1- and β2-AR effects, respectively.
The relaxant action of agonists was determined by measuring relaxation of KCl (100 mM)-induced tonus evoked by cumulative addition of the agonists as described previously (Sugasawa T. et al. cited above). In the case of testing the effect of cyanopindolol, it was added 5-10 min before the addition of agonist.
as §1, §2

[2] = biological target: T1, [125I]-ICYP specific binding site (SMBP, SM-11044 binding protein) in rat colon smooth muscle membranes (Rattus norvegicus, UniProt A0A8I6A822); test: [125I]-ICYP saturation and competition binding to rat colon membranes (Example 2)
T1 construct: Membranes from colon smooth muscles were prepared as essentially described by Ek et al., 1986; from tissue
Experimental: Incubations were carried out at 37° C. for 30 min in a shaking water-bath incubator and terminated by addition of 4 ml of ice-cold Tris-saline followed by rapid filtration under vacuum on Whatman GF/B filter presoaked in Tris-saline containing 0.1% polyethyleneimine (pH 7.4). The filters were washed three times with 4 ml of ice-cold Tris-saline, transferred to plastic tubes and counted in a γ-counter.
Hill coefficient was calculated by linear regression using saturation experiment data. Pseudo-Hill coefficient and IC50 were determined by the computer program, InPlot™ (GraphPad Software, CA, USA).

[3] = system: atypical β-AR in rat colon; conditions: under blockade of β1- and β2-AR effects; McLaughlin, MacDonald et al.; cited from earlier work
[4] = system: [125I]-ICYP specific binding site in rat skeletal muscle membranes; test: [125I]-ICYP binding to rat skeletal muscle membranes; conditions: 1 nM [125I]-ICYP; 10 μM 5-HT, 10 μM phentolamine and 20 μM propranolol
Experimental: Membranes from the colon smooth muscle and from skeletal muscle were prepared from male Wistar rats (300-360 g) as essentially mentioned in example 1.
Saturation binding studies were performed in a final volume of 200 μl of Tris-saline containing 50 μg membrane proteins and different concentrations ([…]) of [^125I]-ICYP, supplemented with 10 μM serotonine (5-HT), 10 μM phentolamine, 20 μM propranolol and 1.1 mM ascorbic acid (pH 7.4), to block possible 5-HT receptors, ARs and oxidation of catecholamines, respectively. The [^125I]-ICYP was used after removing methyl alcohol by compressed air to avoid the influence of the solvent. […] The filters were washed three times with 4 ml of ice-cold Tris-saline, transferred to plastic tubes and counted in a γ-counter.
Competition assays were performed against 1 nM [^125I]-ICYP. Non-specific binding was determined in the presence of 100 μM SM-11044. The inhibition constant, Ki, of a ligand was calculated using the equation described by Cheng and Prusoff (Biochem. Pharmacol., 1973, 22, 3099-3108). Hill coefficient was calculated by linear regression using saturation experiment data. Pseudo-Hill coefficient and IC50 were determined by the computer program, InPlot™ (GraphPad Software, CA, USA).

guinea pig eosinophil = test: Leukotriene B4 induced guinea pig eosinophil chemotaxis; format: cell-based
guinea pig ileum = test: Guinea pig ileum relaxation of KCl-induced tonus; conditions: compared with rat white adipocyte lipolysis
[5] = biological target: rat SM-11044 binding protein (Ro-SMBP) of rat colon smooth muscle membranes (rat) (UniProt D3ZUD8); test: WGA-sepharose chromatography, elution with N-acetyl-D-glucosamine
[6] = agonist (−)-isoproterenol, listed as Cyanopindolol
[7] = agonist (−)-isoproterenol, listed as cyanopindolol
[8] = agonist SM-11044, listed as Cyanopindolol
[9] = agonist SM-11044, listed as cyanopindolol
[10] = up to the concentration of 10 μM
[11] = 1 nM [125I]-ICYP, 10 μM 5-HT, 10 μM phentolamine and 20 μM propranolol, read-out: Ki on [125I]-ICYP specific binding to rat colon membranes

T1 sequence (A0A8I6A822 27-587): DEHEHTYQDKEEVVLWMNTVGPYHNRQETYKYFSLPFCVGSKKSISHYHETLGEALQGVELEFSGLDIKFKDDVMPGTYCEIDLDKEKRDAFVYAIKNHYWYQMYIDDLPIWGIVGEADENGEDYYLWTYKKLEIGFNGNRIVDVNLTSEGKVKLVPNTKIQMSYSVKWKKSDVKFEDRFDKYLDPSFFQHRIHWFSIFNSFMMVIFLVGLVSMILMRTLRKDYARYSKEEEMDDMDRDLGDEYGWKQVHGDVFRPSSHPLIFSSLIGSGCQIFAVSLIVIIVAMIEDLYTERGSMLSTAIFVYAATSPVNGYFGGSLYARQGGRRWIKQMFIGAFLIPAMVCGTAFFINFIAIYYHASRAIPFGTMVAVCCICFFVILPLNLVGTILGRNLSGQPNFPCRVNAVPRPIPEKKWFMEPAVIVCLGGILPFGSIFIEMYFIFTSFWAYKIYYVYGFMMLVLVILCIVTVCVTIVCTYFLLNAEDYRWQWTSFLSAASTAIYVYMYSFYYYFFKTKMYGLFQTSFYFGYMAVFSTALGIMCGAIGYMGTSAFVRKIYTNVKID

Molecule: CC(C)(C)NCC(O)COc1cccc2[nH]c(C#N)cc12 (racemic) [(±)-cyanopindolol, cyanopindolol]
Slope of Schild plot for cyanopindolol, rat white adipocytes (rat white adipocytes; [6]): 1.08
pA2 for cyanopindolol, rat white adipocytes (rat white adipocytes; [6]): 7.44
Slope of Schild plot for cyanopindolol, rat white adipocytes (rat white adipocytes; [7]): 1.08 ± 0.10
pA2 for cyanopindolol, rat white adipocytes (rat white adipocytes; [7]): 7.44 ± 0.61
Slope of Schild plot for cyanopindolol, rat white adipocytes (rat white adipocytes; [8]): 0.96
pA2 for cyanopindolol, rat white adipocytes (rat white adipocytes; [8]): 7.32
Slope of Schild plot for cyanopindolol, rat white adipocytes (rat white adipocytes; [9]): 0.96 ± 0.21
pA2 for cyanopindolol, rat white adipocytes (rat white adipocytes; [9]): 7.32 ± 1.51
Stimulation of lipolysis by the compound itself (rat white adipocytes; [10]): did not stimulate lipolysis
Slope of Schild plot for cyanopindolol, rat colon [1, 6]: 1.03
pA2 for cyanopindolol, rat colon [1, 6]: 7.65
Slope of Schild plot for cyanopindolol, rat colon [1, 7]: 1.03 ± 0.08
pA2 for cyanopindolol, rat colon [1, 7]: 7.65 ± 0.48
Slope of Schild plot for cyanopindolol, rat colon [1, 8]: 0.78
pA2 for cyanopindolol, rat colon [1, 8]: 8.31
Slope of Schild plot for cyanopindolol, rat colon [1, 9]: 0.78 and 0.78 ± 0.11
pA2 for cyanopindolol, rat colon [1, 9]: 8.31 and 8.31 ± 0.88
Effect of the compound itself on the degree of tonus induced by KCl [1, 10]: had no effect
Ki [2]: 0.11 µM
Pseudo-Hill coefficient ([2]; 1 nM [125I]-ICYP, 10 μM 5-HT, 10 μM phentolamine and 20 μM propranolol): 1.01 ± 0.14
pA2 against propranolol-resistant responses of isoproterenol in rat colon [3]: 7.12

EC50 (rat white adipocytes): 1.38 µM
EC50 [1]: 0.229 µM
Ki [2, 11]: > 1000 µM
Displacement of [125I]-ICYP specific binding ([2]; up to the concentration of 1 mM): not displaced
Molecule: CC(C)NC[C@H](O)c1ccc(O)c(O)c1 (single isomer, unassigned) [(−)-isoproterenol, isoproterenol]
IA, rat white adipocyte lipolysis (rat white adipocytes): 1.00 ± 0.037
IA, rat colon relaxation [1]: 1.00 ± 0.063
Displacement of [125I]-ICYP specific binding to skeletal muscle membranes [4]: not displaced by isoproterenol up to concentrations of 10^−4 M
Inhibition of leukotriene B4 induced guinea pig eosinophil chemotaxis (guinea pig eosinophil): no such effect

EC50 (rat white adipocytes): 1.1 µM
EC50 [1]: 0.0513 µM
Pseudo-Hill coefficient ([2]; 1 nM [125I]-ICYP, 10 μM 5-HT, 10 μM phentolamine and 20 μM propranolol, hydrobromide): 1.00 ± 0.12
Ki [2, 11]: 1.8 ± 0.3 µM
Molecule: O=C([C@@H](NCCCc1ccc(F)cc1)[C@H](O)c1ccc(O)c(O)c1)N1CCCC1 [SM-11044, (L)-threo-3-(3,4-dihydroxyphenyl)-N-[3-(4-fluorophenyl)propyl]serine pyrrolidine amide hydrobromide]
IA, rat white adipocyte lipolysis (rat white adipocytes): 0.86 ± 0.054
IA, rat colon relaxation [1]: 1.48 ± 0.166
Relaxation of KCl-induced tonus in guinea pig ileum (in words) (guinea pig ileum): more efficiently than rat white adipocyte lipolysis
Displacement of [125I]-ICYP specific binding to skeletal muscle membranes [4]: displaced the binding in a concentration-dependent manner
Inhibition of leukotriene B4 induced guinea pig eosinophil chemotaxis (guinea pig eosinophil): inhibiting

percent of the radiolabeled material eluted by the specific sugar [5]: 2.3%
B1: Wheat Germ Agglutinine (WGA)-sepharose 6 MB (protein, UniProt P10968 27-197, looked up)
chain: QRCGEQGSNMECPNNLCCSQYGYCGMGGDYCGKGCQNGACWTSKRCGSQAGGATCTNNQCCSQYGYCGFGAEYCGAGCQGGPCRADIKCGSQAGGKLCPNNLCCSQWGFCGLGSEFCGGGCQSGACSTDKPCGKDAGGRVCTNNYCCSKWGSCGIGPGYCGAGCQSGGCDG
